Assay results as given in ChEMBL document CHEMBL3046756, “Synthesis, anti-inflammatory, and structure antioxidant activity relationship of novel 4-quinazoline” (Med Chem Res, 2013).
Active and inactive are the calls of the source. The rule behind the calls is not given here.

Key:
Mus musculus [1] = assay: Toxicity in albino Mus musculus (mouse) assessed as change in toes color at 150 to 900 mg/kg, ip measured within 24 hr; assay type: organism-based; set-up: dose 150-900 mg/kg, route intraperitoneal; conditions: in vivo
Mus musculus [2] = assay: Toxicity in albino Mus musculus (mouse) assessed as rapid respiration at 150 to 900 mg/kg, ip measured within 1 to 2 hr; assay type: organism-based; set-up: route intraperitoneal; conditions: in vivo
Mus musculus [3] = assay: Toxicity in albino Mus musculus (mouse) assessed as change in skin color at 150 to 900 mg/kg, ip measured within 24 hr; assay type: organism-based; set-up: dose 150-900 mg/kg, route intraperitoneal; conditions: in vivo
Mus musculus [4] = assay: Toxicity in albino Mus musculus (mouse) assessed as increase in heart rate at 150 to 900 mg/kg, ip measured within 1 to 2 hr; assay type: organism-based; set-up: route intraperitoneal; conditions: in vivo
Mus musculus [5] = assay: Toxicity in albino Mus musculus (mouse) assessed as change in toes color at 650 to 1800 mg/kg, ip measured within 24 hr; assay type: organism-based; set-up: dose 650-1800 mg/kg, route intraperitoneal; conditions: in vivo
Mus musculus [6] = assay: Toxicity in albino Mus musculus (mouse) assessed as increase in heart rate at 650 to 1800 mg/kg, ip measured within 1 to 2 hr; assay type: organism-based; set-up: route intraperitoneal; conditions: in vivo
Mus musculus [7] = assay: Toxicity in albino Mus musculus (mouse) assessed as change in skin color at 650 to 1800 mg/kg, ip measured within 24 hr; assay type: organism-based; set-up: dose 650-1800 mg/kg, route intraperitoneal; conditions: in vivo
[8] = Antioxidant activity assessed as inhibition of linoleic acid peroxidation at 100 mg/l after 24 hr by spectrophotometric analysis; assay type: functional

SMILES	Activity (Mus musculus [1])	Activity (Mus musculus [2])	Activity (Mus musculus [3])	Activity (Mus musculus [4])	Activity (Mus musculus [5])	Activity (Mus musculus [6])	Activity (Mus musculus [7])	inhibition [8]
O=c1c2ccccc2nc2n1NC(c1ccc(O)c(O)c1)C2 (stereo not drawn)	Toxic	Toxic	Toxic	Toxic	–	–	–	–
COC(=O)c1ccccc1NC(=O)/C=C/c1ccc(O)c(O)c1	–	–	–	–	Toxic	Toxic	Toxic	Active
